In US20070280975A1, “Method for Producing Maca Extract” (Suntory Limited, priority 2004, published 2007):

System: mast cells
Experiment: Suppressive effect on the isolation of histamine from mast cells (compound 48/80 induced)
Type: cell-based, Wister rats
Details: DSCG 0.1 mg/mL; same line of test procedures
Description: The anti-allergic effects of the Maca extract of the present invention can be evaluated by the suppressive effect on the isolation of histamine from mast cells. The Suppressive Effect on the Isolation of Histamine from Mast Cells The test was conducted according to the method of Yuko HIRAI, et al. (Natural Medicines: Vol. 37, p374-380, 1983). That is, Tyrode was interperitoneally injected to Wister rats bled to death and peritoneal cavity cells were taken. Therefrom, mast cells were isolated by the multilevel centrifugal method using Bovine Serum Albumin (BSA)/physiological saline (relative gravity: 1.068). […] The resultant was then ice cooled and amount of histamine in the supernatant after centrifugation (150 g×5 minutes) was measured by high performance liquid chromatography with fluorescence detector attachment. […] The solution obtained was each measured to 0.25 mg/mL, and the above explained suppressive effect on the isolation of histamine from mast cell was evaluated. On the other hand, the above explained suppressive effect on the isolation of histamine from mast cell was evaluated for control solutions 1 to 3 which were obtained in the same procedures as for the solutions of the present invention except for extraction condition such as extraction temperature and ethanol concentration.

## O=C(O)c1cc(=O)c2c(OCC(O)COc3cccc4oc(C(=O)O)cc(=O)c34)cccc2o1 [DSCG, sodium cromoglycate]
  suppressive effect on isolation of histamine: 50%
